This is an account of results in patent US20130317009A1 (priority 2012, published 2013).

Structures are written as SMILES. Several values for one entry are separate records, joined by “and”; a condition that tells them apart may be missing. Identical values can stand only once. Counter-ions that a name gives are not always drawn.

In assay [1] the test system is rat. Put plainly: animal or person. Format: in vivo. Particulars: for ED50: Rattus norvegicus, 0.25 h, read-out: ED50 (95% CI) second pharmacologically active ingredient.
Assay [2] concerns male Sprague-Dawley rats. The settings on record: rat, in vivo.

In general, ED50 refers to the midpoint of the dose-response relation.

Take `CC[C@@H](C(N)=O)N1CCCC1=O` [Levetiracetam, levetiracetam]: the ED50 in assay [1] (ip) stood at 986 mg/kg. The “timepoint of peak effect” value in assay [1] (rat, in vivo) was determined as 15 min p. appl.
In the case of `CCOC(=O)Nc1ccc(NCc2ccc(F)cc2)cc1N` [retigabine dihydrochloride], the ED50 in assay [1] (ip) was 5.09 mg/kg. The “timepoint of peak effect” value in assay [1] (rat, in vivo) is 15 min p. appl. Moreover, in assay [2], the “% MPE (Maximum possible effect) 60 min.” value is −2.0 ± 7.9 % MPE and the “% MPE (Maximum possible effect) 180 min.” value is on record as −2.8 ± 8.0 % MPE. Also, in assay [2] (dihydrochloride), the “% MPE (Maximum possible effect) 30 min.” value was 23.1 % MPE and 23.1 ± 5.0 % MPE.
With `NC(=O)N1c2ccccc2C=Cc2ccccc21` [carbamazepine], in assay [1] (ip), the 50% effective dose (ED50) amounted to 30 mg/kg. For the same compound, in assay [1] (rat, in vivo), the “timepoint of peak effect” value is 15 min p. appl.
The corresponding values for `COC[C@@H](NC(C)=O)C(=O)NCc1ccccc1` [lacosamide] are 35.3 mg/kg and 15 min p. appl.
For `Nc1nnc(-c2cccc(Cl)c2Cl)c(N)n1` [lamotrigine], the ED50 in assay [1] (ip) was 30 mg/kg. Moreover, the “timepoint of peak effect” value in assay [1] (rat, in vivo) was 15 min p. appl. The “ED50 (95% CI) second pharmacologically active ingredient” value in assay [1] (rat, in vivo, ip) was 35253 μg/kg and 35253 (38082-32740) μg/kg.
